According to patent publication US6692695B1, “Industrial scale barrier technology for preservation of sensitive biological materials” (Quadrant Drug Delivery Limited, priority 1999, dated 2004):

Tests used:
[1] = Potency of Amphotericin after foam drying and storage
Procedure: (8) Freeze-dried samples of Amphotericin B were rehydrated with 5 ml 40 wt % sucrose per vial. Then the solutions were transferred into 50 ml sterilized glass vials for future preservation by drying. Before drying, the vials were covered with gray butyl slotted rubber stoppers. The vials were dried inside a vacuum chamber. The vials were placed on the surface of a stainless steel shelf inside the chamber. The shelf temperature was controlled by circulating ethylene glycol/water antifreeze at a controlled temperature inside the shelf. Before the vacuum was applied the shelf temperature was decreased to 5° C. The hydrostatic pressure inside the chamber was decreased to 0.5 Torr. Under such conditions the suspension boiled for 30 min. The temperature of the shelf was then slowly (during 30 min) increased to 25° C. Visually, stable dry foams were formed inside the vials under these experimental conditions within 3 hours. After an additional 12 hours of drying at room temperature, the chamber was filled with the dry N2 gas and the rubber stoppers in a portion of the vials were pushed down. The vials were removed from the chamber and subsequently sealed with aluminum crimped seal. The samples were assayed immediately after drying and after 30 days of storage at 27.5° and 40° C. The results are shown in Table 1, together with the results obtained in the next experiment.
Another set of freeze-dried samples of Amphotericin B was rehydrated with 5 ml 40 wt % sucrose per vial. The solutions were then transferred into sterilized glass vials for future preservation by drying similar to that described above with additional drying at 45° C. for additional 24 hours. After that, the chamber was filled again with the dry N2 gas, the rubber stoppers were pushed down and the vials were sealed. The samples were assayed right after drying and after 30 day of storage at 27.5° and 40° C.

[2] = Glass transition temperature of foam-dried sucrose particles; format: physicochemical
Procedure: (1) In the first test, the equipment set-up consisted of a 4.5 inch internal diameter glass tube connected to a standard Virtis SL600 Unitop condenser section and heated via two laboratory style hot plates from Coming. The opposite end of the glass tube was closed. A 200 ml solution of sucrose 50% (w/w) in de-ionized water was introduced to a 2 L PET beverage bottle, commonly used for soft drinks. This would be considered to be a semi-rigid container. The bottle was placed in the tube and the sucrose solution was preserved by foam formation. After mechanically stable foam was formed, the bottle containing the foam was held overnight at 0.3 Torr and 25° C. The next morning the vacuum was broken with air. Total process time was 23 hours. Immediately following tube disassembly, the bottle was removed from the tube and purged with dry nitrogen for approximately one minute. The bottle was capped with the accompanying plastic screw top. The foam appeared to completely fill the bottle. […] Next the bottle was struck against the laboratory counter about 8-10 times with light-moderate force. All of the foam inside broke apart into discreet particles with the visual and flow characteristics of sand. A small amount of material remained adhering to the bottle interior. The glass transition temperature of the coarse particulate material was 18° C.
(2) In a second test, the glass tube used in the first test was replaced with a jacketed glass tube. The jacket was filled with water and connected to a recirculating heater bath. The bottle used previously was replaced with a 1-gallon capacity polyethylene plastic storage bag, commonly available in supermarkets. This would be considered to be a flexible container. The bag was taped in place to a plastic holder to keep the bag open. The bag was filled with 150 ml of 50% (w/w) sucrose in de-ionized water. Primary foam drying was essentially completed 90 minutes later and the heating source switched to hot plates. Conditions at that point were 31° C. and 0.1 5 Torr. The foam was then held overnight. […]

[3] = Urokinase activity after foam drying and storage
Procedure: (7) Freeze-dried samples of Urokinase were rehydrated with 2 ml of 40 wt % sucrose. The solutions were then transferred to 20 ml sterilized glass vials for future preservation by drying. Before drying, the vials were covered with gray slotted rubber stoppers. The vials were dried inside a vacuum chamber. The vials were sitting on the surface of a stainless steel shelf inside the chamber. The shelf temperature was controlled by circulating ethylene glycol/water antifreeze at a controlled temperature inside the shelf. Before the vacuum was applied the shelf temperature was decreased to 5° C. Then the hydrostatic pressure inside the chamber was decreased to 0.5 Torr. Under such conditions, the suspension boiled for 30 min. […] Visually, under these experimental conditions, stable dry foams were formed inside the vials within 3 hours. After an additional 12 hours of drying at room temperature, the temperature was increased to 45° C. and maintained for an additional 24 hours. After that the chamber was filled with dry N2 gas, the rubber stoppers were pushed down and the vials were sealed with aluminum crimp seals.
The samples were assayed immediately after drying and after 30 days of storage at 40° C. After drying the Urokinase, activity was 93% of the initial activity. […]

Molecule: C[C@@H]1[C@H](O)[C@@H](C)/C=C/C=C/C=C/C=C/C=C/C=C/C=C/[C@H](O[C@@H]2O[C@H](C)[C@@H](O)[C@H](N)[C@@H]2O)C[C@@H]2O[C@](O)(C[C@@H](O)C[C@@H](O)[C@H](O)CC[C@@H](O)C[C@@H](O)CC(=O)O[C@H]1C)C[C@H](O)[C@H]2C(=O)O [Amphotericin, Amphotericin B]
- Potency of Amphotericin (%) ([1]; Control): 126%
- Potency of Amphotericin (%) After 30 days at 27.5° C. ([1]; Td = 25° C.): 114%
- Potency of Amphotericin (%) After 30 days at 40° C. ([1]; Td = 25° C.): 95%
- Potency of Amphotericin (%) After drying ([1]; Td = 25° C.): 108%
- Potency of Amphotericin (%) After 30 days at 27.5° C. ([1]; Td = 45° C.): 102%
- Potency of Amphotericin (%) After 30 days at 40° C. ([1]; Td = 45° C.): 104%
- Potency of Amphotericin (%) After drying ([1]; Td = 45° C.): 103%

Molecule: OC[C@H]1O[C@@](CO)(O[C@H]2O[C@H](CO)[C@@H](O)[C@H](O)[C@H]2O)[C@@H](O)[C@@H]1O [sucrose]
- glass transition temperature ([2]; 150 ml 50% (w/w) in 1-gallon polyethylene bag, 31° C., total 71 hours): 18.33 °C
- glass transition temperature ([2]; 200 ml 50% (w/w) in 2 L PET bottle, held overnight at 0.3 Torr and 25° C., total 23 hours): 18 °C
- glass transition temperature ([2]; 300 ml 50% (w/w) in larger bag, up to 55° C. and 0.2 Torr, total 23.5 hours): 33.3 °C

Molecule: Urokinase
- activity, % of the initial activity ([3]; after 30 days of storage at 40° C.): 90%
- activity, % of the initial activity ([3]; after drying (40 wt % sucrose, up to 45° C.)): 93%
